For series [1], the system named is Clostridium perfringens. The series is classed as cell-based. Conditions: strain of avian origin.
Series [2] concerns Clostridium perfringens. The series is classed as cell-based. Conditions: strain of avian origin, 10^6 cfu/ml, 37° C. for 24 hours, anaerobiosis.
Series [3] concerns Escherichia coli. The series is classed as cell-based.
Series [4] deals with Salmonella Typhimurium. The series is classed as cell-based.
Series [5] deals with Escherichia coli. The series is classed as cell-based. The source holds these as a separate data set.
The test system of series [6] is Salmonella Typhimurium. The series is classed as cell-based. This is another data set of the same source.
Series [7] relates to Salmonella Enteritidis. The series is classed as cell-based.
The test system of series [8] is Salmonella Enteritidis. The series is classed as cell-based. The source holds these as a separate data set.
The nature of series [9]: Solubility in water. The series is classed as physicochemical. As to conditions: for solubility: water, at 25° C.

Each structure is given as a SMILES string. Some results are limits rather than exact numbers.

`Cc1ccc(C(C)C)c(O)c1` [Thymol, reference compound]: the MBC in [1], in series [3] and in series [4] was at most 0.093% each time. Further, the MIC in [2], in series [5] and in series [6] was at most 0.093% each time.
In the case of `CCCCCCCCCCCC(=O)OC1CC(C)CCC1C(C)C` (stereo not shown) [IB579, Menthol Laurate], the MBC in [1], in series [3] and in [4] was above 10% throughout. The MIC in series [2], in series [5] and in series [6] was above 10% each time.
Turning to `Cc1cc(O)c(C(C)C)cc1S(=O)(=O)O` [IB574, Thymol Sulfonic Acid], the MIC in series [7] is reported as 0.625%; in series [2], 0.375%; in series [5], 0.75%; in series [6], 0.375%. The MBC turned out to be 0.375% in series [1], 0.75% in [3], 0.375% in series [4] and 0.625% in series [8].
Take `Cc1cc(S(=O)(=O)O)c(C(C)C)cc1O` [IB540, Carvacrol Sulfonic Acid]: the MIC worked out at 0.312% in [7], 0.375% in [2], 0.75% in [5] and 0.75% in series [6]. The MBC in series [1] is listed as 0.75%; in series [3], 0.75%; in series [4] it was 0.75%; in [8], 0.312%.
Turning to `Cc1cc(S(=O)(=O)[O-])c(C(C)C)cc1O.[K+]` [IB546, Carvacrol Sulfonate Potassium Salt], the melting point was > 270 °C (dec.). Further, the MIC in series [7] is 1.25%. This compound also yielded an MBC in series [1] of 0.75%. In addition, the MIC in series [2] stood at 0.375%. Besides, the MBC in series [3] was 5%. Besides, in series [4], the MBC came out at 1.25%. The same compound returned an MIC in [5] of 5%. In addition, in [9], the solubility is around 250 mg/mL. The compound further gave an MBC in [8] of 1.25%. This compound showed an MIC in series [6] of 1.25%.
Regarding `Cc1ccc(C(C)C)cc1O` [Carvacrol, reference compound], the MBC in series [1] is given as at most 0.093%; in series [3], at most 0.093%; in series [4] it was 0.375%. The values for the MIC in series [2], in [5] and in [6] were at most 0.093%, at most 0.093% and 0.375%, respectively. For the same compound, the Solubility in water result in series [9] (result in words) is reported as “INSOLUBLE”.
With `Cc1cc(O)c(C(C)C)cc1S(=O)(=O)[O-].[K+]` [IB575, Thymol Sulfonate Potassium Salt], the MBC in series [1] is reported as 2.5%; in [3], 2.5%; in [4], 5%. Besides, the MIC in series [2] was 1.25%; in series [5], 2.5%; in series [6] it was 5%. The same compound had a solubility in series [9] of around 190 mg/mL.
Turning to `CCCCCCCCCCCC(=O)Oc1cc(C(C)C)ccc1C` [IB536, Carvacrol Laurate], the MBC in [1], in series [3] and in [4] was above 10% in each case. Besides, the MIC in series [2], in series [5] and in series [6] was above 10% each time.
In the case of `Cc1ccc(C(C)C)c(OC(=O)CCC(=O)Oc2cc(C)ccc2C(C)C)c1` [Succinate], the MBC in series [1], in series [3] and in [4] was at most 0.093% in each case. Besides, the MIC in [2], in series [5] and in series [6] was at most 0.093% in each case.
Turning to `CCCCCCCCCCCC(=O)Oc1cc(C)ccc1C(C)C` [IB570, Thymol Laurate], the MBC in [1], in series [3] and in series [4] was above 10% each time. Besides, the MIC in [2], in series [5] and in series [6] was above 10% throughout.

Broadly, the solubility is how much of the substance goes into solution per volume. Lower therefore signals little dissolved substance. As usually defined, the melting point is the temperature, or range, at which the solid turns liquid.

The values are drawn from patent US20180265804A1 (priority 2015, published 2018).
